Experimental data: article PMC11110238, “Synthesis of novel carbazole hydrazine-carbothioamide scaffold as potent antioxidant, anticancer and antimicrobial agents” (BMC Chemistry, 2024)
Values after ≈ are worked out from the molar mass of the structure shown. Like-named read-outs stand apart in the source and are kept apart here. Marks after values point to notes of the source that are not given here. Each block holds one compound with its values, some of them ahead of it.

How the values were obtained:
Candida albicans = experiment: MIC and MBC test, C. albicans; format: cell-based
Protocol: (§1) Using Muller Hinton agar medium, the antibacterial activity was evaluated by using 24 h cultures of Escherichia coli, Staphylococcus aureus, and Candida albicans. E. coli and S. aureus were incubated in 1% Mueller Hinton Broth (MHB) liquid medium at 37 °C for 24 h; C. albicans was incubated in Sabouraud Dextrose Broth (SDB) at 30 °C for 48 h. MIC (Minimum Inhibitory Concentration) and MBC (Minimum Bactericidal Concentration) tests were performed to determine antimicrobial activity. This stage was carried out in a sterile cabinet.
(§2) The density of microorganisms in fresh cultures was adjusted according to the MacFarland 0.5 scale. For that, the microorganisms were centrifuged at 4000 rpm for 20 min. The supernatant was poured off, and the pellet was washed with 1 mL of 0.9% NaCl solution (physiological saline). The centrifugation was then repeated. The pellet was dissolved again with saline solution and adjusted to 0.5 MacFarland. In the experiment performed in a sterile 96-well plate, compound 4o was diluted ½ with DMSO to prepare a stock solution. In the first, 100 µl of medium and 100 µl of compound 4o as initial dilutions. Dilution was performed seven times at a ratio of ½. Then, 5 µl of fresh microorganism cultures prepared as MacFarland 0.5 were inoculated. The control group was prepared as 100 µl medium, 100 µl distilled water, and 5 µl microorganisms. The plates were incubated at 37 °C and 30 °C for 24 h.
(§3) After incubation, 10 µl of the sample was taken, dropped onto the respective media, and incubated for 24 h at appropriate temperatures to clearly distinguish the residues left by the compound 4o and the growth of microorganisms. Mueller Hinton Agar (MHA) was used for E. coli and S. aureus, and Potato Dextrose Agar (PDA) was used for C. albicans. After incubation, MIC and MBC values were determined. The first well with a significant decrease in growth was considered as MIC, and the first well with no growth was considered as MBC [59, 60].

MCF-7 cells [1] = experiment: Cell cycle analysis by flow cytometry; format: cell-based
Text: The manufacturer protocol (Sigma-Aldrich Mak344 Cell Cycle Analysis Kit) was used to perform cell cycle experiments and analyzed by flow cytometry (Beckman Coulter Cytoflex).

Staphylococcus aureus = experiment: MIC and MBC test, S. aureus; format: cell-based
Protocol: as §1, §2, §3

MCF-7 cell line = experiment: MTT cell viability, MCF-7 cancer cell line; format: cell-based; settings: for IC50: Homo sapiens, MCF7, MTT, 48 h, read-out: IC50 values Carbazole Derivatives Effect on MCF-7 Cell Line; for selective index (SI): L929 vs MCF-7
Protocol: MCF-7 cancer cell lines were cultured at Dulbecco’s Modified Eagle Medium High Glucose (DMEM) (EuroClone, Via Figino, Italy); fetal bovine serum (FBS) and MTT (3-(4,5-Dimethylthiazol-2-yl)-2,5-Diphenyl Tetrazolium Bromide) were provided by Sigma-Aldrich (Darmstadt, Germany); ApopNexin Annexin-V-FITC with PI Apoptosis Kit was obtained from Merck (Darmstadt, Germany); Total RNA Isolation Kit was provided by Analytic Jena (Jena, Germany), SensiFast cDNA Synthesis Kit was provided by Meridian Bioscience (Cincinati, USA), SybrGreen Master Mix was obtained from EuroClone (Via Figino, Italy).
(§4) Cells (MCF-7 and L929) were incubated in 75 cm^2 sterile flasks with 10% FBS, 100 U/mL penicillin, and 100 µg/mL streptomycin. The cells were grown at 37 ^○C in 5% CO2, and MTT was used to screen the viability of the cells. Cells were seeded at a density of 10^4 cells per well. The cells were then cultured for 24 h in 100 µl of DMEM complete medium. After pretreatment with different concentrations of the compounds for 48 h, 10 µl of 5 mg/mL MTT solution was added to each well and incubated for 4 h at 37 ^○C, and 100 µl of DMSO was used in each well to dissolve the blue formazan crystals. Then, the absorbance was measured at 570 nm. The cell viability percentages of compound 4o against MCF-7 cancer cell lines and L929 normal cell lines were presented in Fig. 2 in comparison with doxorubicin anticancer agent.

MCF-7 cells [2] = experiment: Annexin-V-FITC/PI apoptosis assay by flow cytometry; format: cell-based; settings: for total dead cells: MCF-7, sum of pre-apoptotic, post-apoptotic and necrosis
Protocol: FITC Annexin-V apoptosis detection kit with PI, ApopNexinTM FITC (APT750, Merk, Germany) was used for apoptosis assay. MCF-7 cells were seeded into a 6-well plate (1 × 10^6 cells per well). Then, the cells were incubated with the compounds at the cytotoxic concentration by employing a cell viability assay. Apoptotic cells were cultured with the compounds, the medium was removed after incubation, and the cells were washed twice with 5 mL of pre-chilled phosphate-buffered saline. Cells washed with PBS were lifted with Trypsin–EDTA and centrifuged at 400 rpm for 5 min. The resulting cells were each treated with 1 mL of cold 1-X Binding Buffer (Sigma Aldrich, USA). Then, 200 μL of the mixture was taken and placed in a flow cytometry tube, and the other part containing cells was kept on ice. First, 3 µl of ApopNexinTM FITC and 2 µl of 100X propidium iodide (PI) (P4170, Sigma Aldrich, USA) were added to the solution taken into the sample tube and mixed. The resulting mixture was incubated for 15 min in the dark at room temperature. At the end of the incubation, the samples were measured in flow cytometry (Beckman Coulter Cytoflex) and data were obtained.

Escherichia coli = experiment: MIC and MBC test, E. coli; format: cell-based
Protocol: as §1, §2, §3

[3] = DPPH radical scavenging assay; format: biochemical; settings: 30 min, 517 nm
Protocol: To estimate the Carbazole derivatives' antioxidant potential, a solution of each compound (1 mM/mL) in methanol was serially diluted with methanol to obtain a concentration of 1, 2, 5, 10, 20, 50, and 100 µM/mL. Then, DPPH (2,2-diphenyl-1-picrylhydrazyl) reagent (Sigma, USA) was dissolved in 0.002% w/v methanol and mixed with the previously prepared working concentrations in a 1:1 ratio. The same procedures were repeated for Trolox (Sigma-Aldrich, Denmark), which was used as a positive control. All of the solutions were kept in the dark chamber for 30 min at an ordinary temperature. Then, their absorbance values were measured at a wavelength of 517 nm utilizing a UV–visible spectrophotometer. The DPPH inhibition potentials by Carbazole derivatives and Trolox were determined employing the following equation: DPPH inhibition(\%)=abs(blank)-abs(sample)/abs(blank)∗100\% where absblank is the blank absorbance and abssample is the absorbance of the samples [58]. The antioxidant half-maximal inhibitory concentration (IC50) of the synthesized carbazole derivatives and Trolox were assessed by using an online tool “Quest Graph™ IC50 Calculator.” AAT Bioquest, Inc., 25 May. 2023, https://www.aatbio.com/tools/ic50-calculator.

L929 normal cell lines = experiment: MTT cell viability, L929 normal cell line; format: cell-based; settings: Mus musculus, 48 h
Protocol: as §4

[4] = set-up: method as in PMID 37328860; settings: previous preliminary work; read-out: Antioxidant IC50 against DPPH; cited from earlier work
HeLa cancer cell lines = tested on: HeLa cancer cell lines; set-up: method as in PMID 37328860; settings: previous preliminary work; read-out: anticancer IC50 HeLa; cited from earlier work
MCF-7 cancer cell lines = tested on: MCF-7 cancer cell lines; set-up: method as in PMID 37328860; settings: previous preliminary work; read-out: anticancer IC50 MCF-7; cited from earlier work

MIC (Candida albicans): 0.39 µM (≈ 0.157 µg/mL) | MIC (Staphylococcus aureus; Staphylococcus aureus): 1.56 µM (≈ 0.628 µg/mL) | IC50 (MCF-7 cell line): 2.02 ± 0.04 µM | MIC (Escherichia coli; Escherichia coli, read-out: MIC): 1.56 µM (≈ 0.628 µg/mL) | IC50 [3]: 158 ± 2.54 µM
Compound: O=C(Cn1c2ccccc2c2ccccc21)NNC(=S)NC(=O)c1ccccc1 [Compound 4o, N-(2-(2-(9H-carbazol-9-yl)acetyl)hydrazine-1-carbonothioyl)benzamide]
MBC (Candida albicans): 0.39 µM (≈ 0.157 µg/mL) | cell cycle arrest (MCF-7 cells [1]): cell cycle arrest in the MCF-7 cell line in the G2/M phase | MBC (Staphylococcus aureus; Staphylococcus aureus, read-out: MBC): 1.56 µM (≈ 0.628 µg/mL) | selective index (SI) (MCF-7 cell line): 18.70 | induction of apoptosis (MCF-7 cells [2]; MCF-7): drives MCF-7 cells to apoptosis | necrosis cell population (MCF-7 cells [2]; MCF-7, cytotoxic concentration): 3.69% | post-apoptotic cell population (MCF-7 cells [2]; MCF-7, cytotoxic concentration): 4.33% | pre-apoptotic cell population (MCF-7 cells [2]; MCF-7, cytotoxic concentration): 8.20% | viable cell population (MCF-7 cells [2]; MCF-7, cytotoxic concentration): 83.78% | total dead cells (MCF-7 cells [2]): 16.22% | MBC (Escherichia coli; Escherichia coli, read-out: MBC): 1.56 µM (≈ 0.628 µg/mL) | IC50 (L929 normal cell lines): 37.8 µM

melting point: 211 to 213 °C | IC50 (MCF-7 cell line): > 20 µM | IC50 [3]: 2.37 ± 1.7 µM
Compound: O=C(Cn1c2ccccc2c2ccccc21)NNC(=S)NC1CCCCC1 [Compound 4m, 2-(2-(9H-carbazol-9-yl)acetyl)-N-cyclohexylhydrazine-1-carbothioamide]

melting point: 235 to 237 °C | IC50 (MCF-7 cell line): > 20 µM | IC50 [3]: 52.1 ± 2.42 µM
Compound: O=C(Cn1c2ccccc2c2ccccc21)NNC(=S)Nc1ccccc1 [Compound 4a, 2-(2-(9H-carbazol-9-yl)acetyl)-N-phenylhydrazine-1-carbothioamide]

melting point: 205 to 207 °C | IC50 (MCF-7 cell line): > 20 µM | IC50 [3]: 0.38 ± 0.05 µM
Compound: C=CCNC(=S)NNC(=O)Cn1c2ccccc2c2ccccc21 [Compound 4y, 2-(2-(9H-carbazol-9-yl)acetyl)-N-allylhydrazine-1-carbothioamide]

melting point: 235 to 237 °C | IC50 (MCF-7 cell line): > 20 µM | IC50 [3]: 50.8 ± 1.88 µM
Compound: O=C(Cn1c2ccccc2c2ccccc21)NNC(=S)Nc1ccc([N+](=O)[O-])cc1 [Compound 4e, 2-(2-(9H-carbazol-9-yl)acetyl)-N-(4-nitrophenyl)hydrazine-1-carbothioamide]

Continued, compound first:

Compound: C[C@H]1c2cccc(O)c2C(=O)C2=C(O)[C@]3(O)C(=O)C(C(N)=O)=C(O)[C@@H](N(C)C)[C@@H]3[C@@H](O)[C@@H]21 [Doxycyline, reference compound]
MBC (Staphylococcus aureus): 63.0^a µM | MBC (Escherichia coli): 50.9^a µM | MIC (Escherichia coli): 5.09^a µM

Compound: COc1ccc(S(=O)(=O)NNC(=O)Cn2c3ccccc3c3ccccc32)cc1 [St.1]
IC50 [4]: 1.05 µM

Compound: O=C(Cn1c2ccccc2c2ccccc21)N/N=C1\SCC(=O)N1c1ccc(Cl)cc1 [St.2]
IC50 (HeLa cancer cell lines): 7.59 µM | IC50 [4]: 5.15 µM | IC50 (MCF-7 cancer cell lines): 18.4 µM

Compound: OC(Cn1cncn1)(Cn1cncn1)c1ccc(F)cc1F [fluconazole, reference compound]
MBC (Candida albicans): 16.3 µM (≈ 4.99 µg/mL)

Compound: COc1cccc2c1C(=O)c1c(O)c3c(c(O)c1C2=O)C[C@@](O)(C(=O)CO)C[C@@H]3O[C@H]1C[C@H](N)[C@H](O)[C@H](C)O1 [Doxorubicin, reference compound]
IC50 (MCF-7 cell line): 5.06 ± 0.21 µM | selective index (SI) (MCF-7 cell line): 3.82 | total dead cells (MCF-7 cells [2]): 14.50% | IC50 (L929 normal cell lines): 19.3 µM

Compound: O=C(c1ccc(F)cc1)n1nc(Cn2c3ccccc3c3ccccc32)oc1=O [St.3]
IC50 (HeLa cancer cell lines): 17.2 µM | IC50 (MCF-7 cancer cell lines): 6.44 µM
